“And” between values parts separate entries of the source, which are not always exact repeats. Equal entries are not always repeated.
Conditions: for mass density: Liquid, isochoric method; for surface tension liquid-gas: Ring tensiometer

CCCCCCCCCCCCCC[P+](CCCCCC)(CCCCCC)CCCCCC.N#C[N-]C#N [tetradecyl(trihexyl)phosphonium dicyanamide]
Conditions | mass density [kg/m3]
240.45 K, 9948.1 kPa | 936.26
247.9 K, 20013 kPa | 935.78
248.45 K, 1061.1 kPa | 928.34
255.19 K, 9753 kPa | 927.91
255.47 K, 29932 kPa | 935.43
255.48 K, 30358 kPa | 935.75
262.34 K, 100 kPa | 919.18
263.19 K, 40368 kPa | 935.25
263.31 K, 20048 kPa | 927.4
265.01 K, 1331.4 kPa | 918.74
268.5 K, 100 kPa | 915.58
271.01 K, 49601 kPa | 934.43
271.54 K, 9121.6 kPa | 918.33
271.95 K, 29894 kPa | 926.34
273.37 K, 100 kPa | 912.9
278.2 K, 100 kPa | 910.1
279.99 K, 39498 kPa | 925.84
280.34 K, 20094 kPa | 917.77
281.41 K, 1813.9 kPa | 908.67
283.3 K, 100 kPa | 907.06
288.09 K, 48847 kPa | 925.34
288.37 K, 100 kPa | 904.29
289.04 K, 30059 kPa | 917.24
289.74 K, 10390 kPa | 908.18
293.14 K, 100 kPa | 901.37
297.73 K, 39781 kPa | 916.7
298.14 K, 20028 kPa | 907.66
298.15 K, 119.7 kPa | 898.63
298.21 K, 100 kPa | 898.81
298.4 K, 1119.7 kPa | 898.73
303.08 K, 100 kPa | 895.87
306.53 K, 28505 kPa | 907.16
307.06 K, 9995.2 kPa | 898.22
307.27 K, 49935 kPa | 916.12
308.18 K, 100 kPa | 892.91
313.09 K, 100 kPa | 890.2
316.64 K, 19643 kPa | 897.65
316.65 K, 39471 kPa | 906.55
318.03 K, 100 kPa | 887.53
318.37 K, 1160.7 kPa | 887.84
323.32 K, 100 kPa | 884.69
327.54 K, 49978 kPa | 905.9
327.66 K, 10032 kPa | 887.3
327.67 K, 30114 kPa | 897.01
328.16 K, 100 kPa | 881.94
332.96 K, 100 kPa | 879.42
338.03 K, 100 kPa | 876.79
338.23 K, 19830 kPa | 886.69
338.63 K, 41032 kPa | 896.36
339.22 K, 1500.6 kPa | 876.45
342.86 K, 100 kPa | 873.89
348.12 K, 100 kPa | 871.1
348.37 K, 49973 kPa | 895.79
349.27 K, 10043 kPa | 875.89
349.28 K, 29863 kPa | 886.05
353.28 K, 100 kPa | 868.29
358 K, 100 kPa | 865.81
364.53 K, 100 kPa | 862.18

Conditions | surface tension liquid-gas
283.57 K | 32.46 mN/m
283.61 K | 32.69 mN/m
288.08 K | 32.54 mN/m
288.09 K | 31.93 mN/m
293.35 K | 31.85 mN/m
293.41 K | 32.02 mN/m
298.2 K | 31.68 mN/m
298.24 K | 31.82 mN/m
303.15 K | 30.98 mN/m
303.2 K | 31.32 mN/m
308.16 K | 30.28 mN/m
308.17 K | 30.84 mN/m
313.21 K | 29.67 mN/m
313.25 K | 30.4 mN/m
318.29 K | 29.57 mN/m
318.3 K | 30.08 mN/m
323.33 K | 29.65 mN/m
323.39 K | 29.41 mN/m
328.05 K | 28.72 mN/m
328.09 K | 29.18 mN/m
333.58 K | 28.62 mN/m and 28.77 mN/m
338.55 K | 28.21 mN/m
338.57 K | 28.35 mN/m
343.55 K | 27.83 mN/m
343.57 K | 27.93 mN/m
348.56 K | 27.59 mN/m
348.64 K | 27.56 mN/m
353.46 K | 26.45 mN/m
353.49 K | 27.11 mN/m
358.44 K | 26.17 mN/m
358.57 K | 26.7 mN/m
365.15 K | 25.74 mN/m
365.21 K | 26.14 mN/m

CCCCCCn1cc[n+](C)c1.F[P-](F)(F)(F)(F)F [1-hexyl-3-methylimidazolium hexafluorophosphate]
Conditions | mass density [kg/m3]
220.78 K, 20693 kPa | 1364.2
221.31 K, 2190 kPa | 1355.99
226.3 K, 10334 kPa | 1355.5
226.34 K, 30167 kPa | 1363.64
232.2 K, 39852 kPa | 1363.05
232.44 K, 20355 kPa | 1354.89
232.75 K, 1468.4 kPa | 1346.06
238.32 K, 29843 kPa | 1354.3
238.38 K, 10065 kPa | 1345.53
239.11 K, 50924 kPa | 1362.36
244.53 K, 39522 kPa | 1353.69
244.58 K, 20078 kPa | 1345.49
244.91 K, 1121.9 kPa | 1336.19
250.82 K, 49360 kPa | 1353.07
251.03 K, 10204 kPa | 1335.6
251.05 K, 29930 kPa | 1344.61
257.33 K, 19488 kPa | 1335.01
257.74 K, 40140 kPa | 1344.21
258.25 K, 1630.4 kPa | 1325.22
264.3 K, 29775 kPa | 1334.34
264.31 K, 10326 kPa | 1324.65
264.31 K, 29966 kPa | 1334.29
264.82 K, 50312 kPa | 1343.28
271.12 K, 19945 kPa | 1324.01
271.72 K, 40378 kPa | 1333.63
272.25 K, 1996.3 kPa | 1314.31
277.88 K, 100 kPa | 1308.85
278.37 K, 29980 kPa | 1323.33
278.39 K, 10230 kPa | 1313.74
278.81 K, 49975 kPa | 1332.93
283.3 K, 100 kPa | 1304.78
285.6 K, 39832 kPa | 1322.66
285.88 K, 20217 kPa | 1313.06
285.98 K, 1730.8 kPa | 1302.58
288.37 K, 100 kPa | 1300.82
293.01 K, 100 kPa | 1296.84
293.33 K, 11116 kPa | 1301.92
293.38 K, 30030 kPa | 1312.37
294.3 K, 49916 kPa | 1321.89
298.16 K, 127.6 kPa | 1293.38
298.21 K, 100 kPa | 1293.14
300.72 K, 20089 kPa | 1301.27
301.06 K, 39951 kPa | 1311.66
301.51 K, 940.4 kPa | 1290.78
303 K, 100 kPa | 1289.6
308.05 K, 100 kPa | 1285.34
308.93 K, 10526 kPa | 1290.11
308.93 K, 30141 kPa | 1300.53
309.51 K, 50444 kPa | 1310.89
313.17 K, 100 kPa | 1280.96
316.34 K, 18783 kPa | 1289.47
317.93 K, 100 kPa | 1277.34
318.19 K, 41900 kPa | 1299.68
318.48 K, 1643.7 kPa | 1277.43
323.16 K, 100 kPa | 1273.19
325.52 K, 47639 kPa | 1299.1
325.7 K, 29844 kPa | 1288.64
325.86 K, 10002 kPa | 1276.79
328.09 K, 100 kPa | 1269.64
333.28 K, 100 kPa | 1265.48
334.93 K, 20139 kPa | 1276.01
336.11 K, 41946 kPa | 1287.71
336.59 K, 1430 kPa | 1262.76
338.63 K, 100 kPa | 1261.76
343.3 K, 100 kPa | 1257.98
344.61 K, 1230.6 kPa | 1256.88
345.06 K, 10024 kPa | 1262.06
345.06 K, 30866 kPa | 1275.14
347.93 K, 50753 kPa | 1286.78
348.55 K, 100 kPa | 1254.47
353.15 K, 18882 kPa | 1261.36
353.15 K, 40148 kPa | 1274.42
353.16 K, 10034 kPa | 1256.16
353.61 K, 100 kPa | 1250.75
358.19 K, 100 kPa | 1247.22
364.46 K, 100 kPa | 1242.36
